Measurements from ChEMBL document CHEMBL1201862, “PubChem BioAssay data set” (2004).
Calls of active or inactive are those of the source.

What was measured:
[1] = biological target: Beta-galactosidase (Escherichia coli, UniProt Q8VNN2); experiment: Dose response counterscreen for EBI2 assay utilizing the enzyme, b-galactosidase.; type: functional
[2] = biological target: T1, Trace amine-associated receptor 1 (Homo sapiens, UniProt Q96RJ0); experiment: Counterscreen for agonists of the human trace amine associated receptor 1 (hTAAR1): Fluorescence-based cell-based high throughput dose response assay to identify hTAAR1 agonist that also desensitize TAAR1 receptor response.; type: functional
T1 sequence (Q96RJ0 whole entry): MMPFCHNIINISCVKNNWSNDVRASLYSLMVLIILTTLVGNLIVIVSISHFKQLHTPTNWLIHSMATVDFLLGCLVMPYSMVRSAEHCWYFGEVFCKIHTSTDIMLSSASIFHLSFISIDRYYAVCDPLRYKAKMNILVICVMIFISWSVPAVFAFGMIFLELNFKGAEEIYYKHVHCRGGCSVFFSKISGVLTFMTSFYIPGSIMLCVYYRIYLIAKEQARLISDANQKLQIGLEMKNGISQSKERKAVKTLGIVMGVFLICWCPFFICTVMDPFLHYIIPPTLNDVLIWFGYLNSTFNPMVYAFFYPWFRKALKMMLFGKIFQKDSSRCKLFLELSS

[3] = cells; type: functional, cell-based
[4] = cells; type: functional, cell-based; remark: listed apart in the source
[5] = biological target: T1, Trace amine-associated receptor 1; experiment: Fluorescence-based cell-based high throughput dose response assay to identify agonists of the human trace amine associated receptor 1 (TAAR1).; type: functional
[6] = HEK293 cell viability, dose response, counter-screen for EBV LMP1 inhibitor project, dry powder, set 2 (AID 624374); type: functional
[7] = Cytotoxicity screening for potential Inhibitors of Bacterial Capsule Biogenesis (4).; type: functional
[8] = biological target: T2, Caspase-6 (Homo sapiens, UniProt P55212); experiment: human caspase-6 inhibitors, dose response, biochemical, VEID-R110 fluorescence, cherry-pick (AID 720632)
T2 sequence (P55212 whole entry): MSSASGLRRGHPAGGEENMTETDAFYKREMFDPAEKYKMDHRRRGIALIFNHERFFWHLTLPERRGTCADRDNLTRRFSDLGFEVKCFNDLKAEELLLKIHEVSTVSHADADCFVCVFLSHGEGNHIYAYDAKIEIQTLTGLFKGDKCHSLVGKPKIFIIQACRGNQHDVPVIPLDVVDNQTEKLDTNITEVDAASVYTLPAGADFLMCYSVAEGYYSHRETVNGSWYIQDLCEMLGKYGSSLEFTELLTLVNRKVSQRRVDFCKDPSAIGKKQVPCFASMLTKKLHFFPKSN

[9] = test system: Streptococcus sp. 'group A'; experiment: growth inhibition of control SK(-) GAS strain, dose response, counter-screen for streptokinase expression inhibitor project, luminescence, kanamycin, BacTiterGlo, confirmation (AID 1900); type: functional, organism-based
[10] = test system: Streptococcus; experiment: Group A Streptococcus viability loss, dose response, counter-screen for streptokinase expression inhibitor project, luminescence, BacTiterGlo (AID 1915); type: functional, organism-based;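 note: potency for reduction of bacterial viability or growth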
[11] = biological target: Albumin (Bos taurus, UniProt P02769); experiment: Counterscreen for inhibitors of T-cell receptor (TCR)-CD3 interaction: Fluorescence-based biochemical high throughput dose response assay to identify inhibitors of T-cell receptor (TCR)-CD3 interaction using a TAMRA-labeled BSA probe.; type: functional
Sequence of Albumin (P02769 whole entry): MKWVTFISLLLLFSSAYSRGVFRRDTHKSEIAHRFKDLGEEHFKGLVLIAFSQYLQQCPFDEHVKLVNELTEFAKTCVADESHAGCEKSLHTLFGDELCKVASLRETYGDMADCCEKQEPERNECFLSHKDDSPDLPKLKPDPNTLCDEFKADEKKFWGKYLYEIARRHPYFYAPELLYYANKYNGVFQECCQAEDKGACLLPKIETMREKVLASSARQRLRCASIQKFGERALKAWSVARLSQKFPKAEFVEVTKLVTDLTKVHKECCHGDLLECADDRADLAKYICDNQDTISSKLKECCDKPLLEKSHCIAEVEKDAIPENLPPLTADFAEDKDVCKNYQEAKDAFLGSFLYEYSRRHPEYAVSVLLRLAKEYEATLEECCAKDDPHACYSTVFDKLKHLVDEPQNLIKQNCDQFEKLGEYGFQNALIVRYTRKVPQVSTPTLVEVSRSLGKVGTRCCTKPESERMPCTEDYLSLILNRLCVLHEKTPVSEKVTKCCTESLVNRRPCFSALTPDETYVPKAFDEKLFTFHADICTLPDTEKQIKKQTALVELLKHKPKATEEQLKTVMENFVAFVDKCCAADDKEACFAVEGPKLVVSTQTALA

Sequence of Beta-galactosidase (Q8VNN2 whole entry): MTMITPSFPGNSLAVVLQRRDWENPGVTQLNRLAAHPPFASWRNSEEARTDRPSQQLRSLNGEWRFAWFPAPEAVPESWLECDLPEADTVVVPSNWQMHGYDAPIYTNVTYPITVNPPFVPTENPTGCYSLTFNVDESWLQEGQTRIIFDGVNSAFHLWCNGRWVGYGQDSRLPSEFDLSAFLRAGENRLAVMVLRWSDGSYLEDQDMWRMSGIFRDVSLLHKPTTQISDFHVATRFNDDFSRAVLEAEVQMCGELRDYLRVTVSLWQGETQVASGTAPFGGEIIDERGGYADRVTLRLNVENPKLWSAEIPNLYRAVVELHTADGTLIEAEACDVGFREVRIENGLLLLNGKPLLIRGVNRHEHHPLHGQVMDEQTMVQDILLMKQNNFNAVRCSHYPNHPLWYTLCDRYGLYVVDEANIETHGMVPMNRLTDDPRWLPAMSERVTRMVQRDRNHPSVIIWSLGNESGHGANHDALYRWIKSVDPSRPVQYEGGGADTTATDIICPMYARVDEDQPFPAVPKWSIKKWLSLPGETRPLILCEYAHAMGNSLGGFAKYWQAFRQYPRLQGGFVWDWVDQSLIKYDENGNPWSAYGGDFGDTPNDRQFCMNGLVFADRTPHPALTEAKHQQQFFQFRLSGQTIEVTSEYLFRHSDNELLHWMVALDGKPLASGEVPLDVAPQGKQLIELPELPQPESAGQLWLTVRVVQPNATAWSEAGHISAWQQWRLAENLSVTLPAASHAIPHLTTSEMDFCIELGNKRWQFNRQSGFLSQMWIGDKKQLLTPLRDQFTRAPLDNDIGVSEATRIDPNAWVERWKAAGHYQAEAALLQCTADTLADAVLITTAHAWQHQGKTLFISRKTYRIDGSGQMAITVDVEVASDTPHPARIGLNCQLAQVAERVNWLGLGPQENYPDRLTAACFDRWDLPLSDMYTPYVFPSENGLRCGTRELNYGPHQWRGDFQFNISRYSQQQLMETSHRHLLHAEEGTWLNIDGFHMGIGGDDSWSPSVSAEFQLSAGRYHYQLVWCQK

COc1ccc(-n2nnnc2C(c2ccccc2OC(F)(F)F)N2CCN(C/C=C/c3ccccc3)CC2)cc1 (stereo not given)
IC50 [1]: > 80 µM (inactive)

CC(CNC(=O)[C@H]1O[C@@H](n2cnc3c(=O)[nH]c(N)nc32)[C@H](O)[C@@H]1O)c1ccccc1 (stereo not given in full)
IC50 [2]: 3.77 µM (active) | IC50 [3]: > 29.9 µM (inactive) | EC50 [4]: > 29.9 µM (inactive) | EC50 [5]: 1.54 µM (active)

CO[C@@H]1CN(C)C(=O)c2ccc(NC(C)=O)cc2OC[C@@H](C)N(Cc2ccccc2F)C[C@H]1C
AbsAC35 [6]: 167.32 µM

O=C(C[C@@H]1CC[C@@H]2[C@H](COC[C@@H](O)CN2Cc2ccc(Oc3ccccc3)cc2)O1)N1CCc2ccccc2C1
AbsAC35 [6]: 79.64 µM

N#C[C@@H]1[C@H](c2ccc(C#Cc3ccccc3F)cc2)[C@@H](CO)N1C(=O)c1cccnc1
AbsAC35 [6]: 93.82 µM

Cc1cnccc1NC(=O)c1ccc2ncsc2c1
CC50 [7]: > 300 µM (inactive)

Cc1cc(NC(=O)c2ccc3nc(NC(=O)OC(C)(C)C)sc3c2)ccn1
CC50 [7]: 96.8 µM (active)

O=C(Nc1ccncc1F)c1ccc2ncsc2c1
CC50 [7]: > 300 µM (inactive)

CCOC(=O)[C@H](Cc1c[nH]c2ccccc12)NC(=O)CN=[N+]=[N-]
AC50 [8]: 6.78 µM (active)

Cc1cc(C(=O)N/N=C/c2cc(Br)cc([N+](=O)[O-])c2O)c2ccccc2n1
EC50 [9]: 1.36 µM (active) | EC50 [10]: 1.5 µM (active) | IC50 [11]: > 94.1 µM (inactive)
